# According to US20260250251A1, “HETEROCYCLIC COMPOUNDS AS PI3Ka INHIBITORS” (Pikavation Therapeutics, Inc., priority 2022, published 2026):
# Assays:
# [1] = test system: T47D (PIK3CA H1047R) cells, pSer473 AKT; assay: pS473 AKT assay in T47D cells; format: cell-based; conditions: Homo sapiens, treated 2 h, read-out: T47D_IC50
# How it was run: (§1)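 Cells exposed 2 h to a range of PI3Kα inhibitor concentrations, then paraformaldehyde-fixed and probed for pSer473 AKT with rabbit primary overnight at 4 °C and HRP anti-rabbit secondary. Chemiluminescent cell-based ELISA read-out; IC50 from concentration-response fitting.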
# [2] = test system: SKBR3 (PIK3CA WT) cells, pSer473 AKT; assay: pS473 AKT assay in SKBR3 cells; format: cell-based; conditions: Homo sapiens, SK-BR-3, treated 2 h, read-out: SKBR3_IC50
# How it was run: as §1
IC50 [1],IC50 [2],Structure (SMILES)
< 1000 nM,< 1000 nM,"CCn1nc(N)c2c(Oc3cc(F)ccc3Cl)c(NC(=O)c3cc(F)cc(C(F)(F)F)c3)ccc21 [Example 8, N-(3-Amino-4-(2-chloro-5-fluorophenoxy)-1-ethyl-1H-indazol-5-yl)-3-fluoro-5-(trifluoromethyl)benzamide]"
< 1000 nM,1000 to 5000 nM,"Cn1nc(N)c2c(Oc3cc(F)ccc3Cl)c(NC(=O)c3csc4ccccc34)cc(Cl)c21 [Example 63, N-(3-Amino-7-chloro-4-(2-chloro-5-fluorophenoxy)-1-methyl-1H-indazol-5-yl)benzo[b]thiophene-3-carboxamide]"
< 1000 nM,1000 to 5000 nM,"Nc1nn(CC(=O)N2CCOCC2)c2ccc(NC(=O)c3cc(F)cc(C(F)(F)F)c3)c(Oc3cc(F)ccc3Cl)c12 [Example 10, N-(3-Amino-4-(2-chloro-5-fluorophenoxy)-1-(2-morpholino-2-oxoethyl)-1H-indazol-5-yl)-3-fluoro-5-(trifluoromethyl)benzamide]"
< 1000 nM,1000 to 5000 nM,"Cn1nc(N)c2c(Oc3cc(F)ccc3Cl)c(NC(=O)c3cc(F)cc(C(F)(F)F)c3)cc(C#CC3CCOCC3)c21 [Example 38, N-(3-Amino-4-(2-chloro-5-fluorophenoxy)-1-methyl-7-((tetrahydro-2H-pyran-4-yl)ethynyl)-1H-indazol-5-yl)-3-fluoro-5-(trifluoromethyl)benzamide]"
< 1000 nM,< 1000 nM,"Cn1nc(N)c2c(Oc3cc(F)ccc3Cl)c(NC(=O)c3cc(F)cc(C(F)(F)F)c3)cc(-c3cnn(C4CCOC4)c3)c21 (stereo not drawn) [Example 28, N-(3-Amino-4-(2-chloro-5-fluorophenoxy)-1-methyl-7-(1-(tetrahydrofuran-3-yl)-1H-pyrazol-4-yl)-1H-indazol-5-yl)-3-fluoro-5-(trifluoromethyl)benzamide]"
< 1000 nM,1000 to 5000 nM,"Cn1nc(N)c2c(Oc3cc(F)ccc3Cl)c(NC(=O)c3cc(F)cc(C(F)(F)F)c3)cc(C#Cc3ccccn3)c21 [Example 37, N-(3-Amino-4-(2-chloro-5-fluorophenoxy)-1-methyl-7-(pyridin-2-ylethynyl)-1H-indazol-5-yl)-3-fluoro-5-(trifluoromethyl)benzamide]"
< 1000 nM,1000 to 5000 nM,"Cn1ccc(C#Cc2cc(NC(=O)c3cc(F)cc(C(F)(F)F)c3)c(Oc3cc(F)ccc3Cl)c3c(N)nn(C)c23)n1 [Example 48, N-(3-Amino-4-(2-chloro-5-fluorophenoxy)-1-methyl-7-((1-methyl-1H-pyrazol-3-yl)ethynyl)-1H-indazol-5-yl)-3-fluoro-5-(trifluoromethyl)benzamide]"
< 1000 nM,1000 to 5000 nM,"Cn1nc(N)c2c(Oc3cc(F)ccc3Cl)c(NC(=O)c3cc(F)cc(C(F)(F)F)c3)cc(C#CC(C)(C)O)c21 [Example 39, N-(3-Amino-4-(2-chloro-5-fluorophenoxy)-7-(3-hydroxy-3-methylbut-1-yn-1-yl)-1-methyl-1H-indazol-5-yl)-3-fluoro-5-(trifluoromethyl)benzamide]"
< 1000 nM,< 1000 nM,"Nc1n[nH]c2c(Br)cc(NC(=O)c3cc(F)cc(C(F)(F)F)c3)c(Oc3cc(F)ccc3Cl)c12 [Example 11, N-(3-Amino-7-bromo-4-(2-chloro-5-fluorophenoxy)-1H-indazol-5-yl)-3-fluoro-5-(trifluoromethyl)benzamide]"
